Laboratory results published in patent US20070203098A1, “Pten Inhibitors” (priority 2004, published 2007).
Counter-ions that a name gives are not always drawn. Like-named read-outs stand apart in the source and are kept apart here.

Assays:
Type in all cases: biochemical
PTP1B = target: T1, PTP1B (Homo sapiens, UniProt P18031); test: PTP1B Inhibition Assay: IC50 Determinations
T1 sequence (P18031 1-435): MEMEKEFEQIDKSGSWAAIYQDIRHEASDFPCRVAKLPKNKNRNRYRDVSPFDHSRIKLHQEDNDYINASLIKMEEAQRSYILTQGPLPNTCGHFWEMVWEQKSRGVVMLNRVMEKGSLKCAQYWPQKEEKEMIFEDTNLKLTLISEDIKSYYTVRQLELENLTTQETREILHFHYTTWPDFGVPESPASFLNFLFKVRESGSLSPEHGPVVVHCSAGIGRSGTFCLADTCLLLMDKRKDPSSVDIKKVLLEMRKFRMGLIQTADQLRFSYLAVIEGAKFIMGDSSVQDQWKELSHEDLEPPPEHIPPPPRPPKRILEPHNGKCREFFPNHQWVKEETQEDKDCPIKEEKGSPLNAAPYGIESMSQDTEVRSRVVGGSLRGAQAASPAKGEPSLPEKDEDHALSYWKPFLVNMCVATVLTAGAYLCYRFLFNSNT

PTEN [1] = target: T2, PTEN (Homo sapiens, UniProt P60484); test: PTEN Inhibition Assay: General Screening
T2 sequence (P60484 whole entry, species assumed): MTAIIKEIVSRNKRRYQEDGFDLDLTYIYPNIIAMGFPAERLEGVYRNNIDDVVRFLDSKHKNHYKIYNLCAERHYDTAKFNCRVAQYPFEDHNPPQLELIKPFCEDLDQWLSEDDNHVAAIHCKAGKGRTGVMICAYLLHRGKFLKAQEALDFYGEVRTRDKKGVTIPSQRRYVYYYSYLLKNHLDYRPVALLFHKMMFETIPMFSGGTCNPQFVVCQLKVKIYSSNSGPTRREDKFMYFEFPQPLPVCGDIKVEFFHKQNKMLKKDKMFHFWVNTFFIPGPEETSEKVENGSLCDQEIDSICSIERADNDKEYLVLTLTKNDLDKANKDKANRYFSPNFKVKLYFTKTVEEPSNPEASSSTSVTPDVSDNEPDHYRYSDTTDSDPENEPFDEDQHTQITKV

PTEN [2] = target: T2, PTEN; test: PTEN Inhibition Assay: IC50 Determinations
[3] = 250 uM, Table 27 isatins, read-out: % Inhibition @250 uM
[4] = read-out: % Inhibition at 250 uM
[5] = 250 uM, Table 23 polyamides, read-out: % Inhibition @250 uM
[6] = read-out: % Inhibition @ 250 uM
[7] = 250 uM, Table 24 known PTP inhibitors, read-out: % Inhibition at 250 uM

O=C(CCc1ccccc1[N+](=O)[O-])Nc1ccc2c(c1)C(=O)C(=O)N2 [SF1812-000]
IC50 (PTP1B; Table 29, read-out: PTP1B IC50): > 10000 nM
inhibition at 250 µM (PTEN [1]; [3]): 40.5%

O=C(O)[C@@H]1[C@H](C(=O)O)[C@H]2CC[C@@H]1O2 [SF1686-000, Endothall, reference compound]
inhibition at 250 µM (PTEN [1]; [4]): -1.2%

O=C(COc1ccccc1)Nc1ccc2c(c1)C(=O)C(=O)N2 [SF1781-000]
IC50 (PTP1B; Table 29, read-out: PTP1B IC50): 294 nM
IC50 (PTEN [2]; Table 29, read-out: PTEN IC50): 18.9 µM
inhibition at 250 µM (PTEN [1]; [3]): 97.8%

CCOC(=O)CNC(=O)C(c1ccc(O)cc1)N(C(=O)c1snc(C(N)=O)c1N)c1ccc2c(c1)OCO2 (stereo not drawn) [SF1552-000]
inhibition at 250 µM (PTEN [1]; [5]): 52.4%

O=C(Nc1ccc2c(c1)C(=O)C(=O)c1ccccc1-2)c1cccs1 [SF1799-000]
IC50 (PTP1B): < 10000 nM
IC50 (PTEN [2]): 0.733 µM
inhibition at 250 µM (PTEN [1]; [6]): 99.4%

CC(C)(C)c1ccc(C(=O)NNC(=O)c2ccc(C(C)(C)C)cc2)cc1 [SF1733-000]
inhibition at 250 µM (PTEN [1]; 250 uM, Table 22 imidazoles, read-out: % Inhibition at 250 uM): 15.9%

CCOC(=O)c1cccc(OCC(=O)Nc2ccc3c(c2)C(=O)C(=O)c2ccccc2-3)c1 [SF1811-000]
inhibition at 250 µM (PTEN [1]; [6]): 98.6%

CC1(C(=O)O)C2CCC(O2)C1(C)C(=O)O (stereo not drawn) [SF1679-000, Cantharidic Acid, reference compound]
inhibition at 250 µM (PTEN [1]; [4]): 2.7%

CC(C)=C[C@@H]1[C@H](C(=O)OCc2coc(Cc3ccccc3)c2)C1(C)C (mixture of isomers) [SF1671-000, 5-Benzyl-3-furylmethyl (1R,S)-cis,trans-chrysanthemate, reference compound]
inhibition at 250 µM (PTEN [1]; [4]): 9.6%

O=C(CCC(=O)NNC(=O)COc1ccc(Cl)cc1)NNC(=O)COc1ccc(Cl)cc1 [SF1516-000]
inhibition at 250 µM (PTEN [1]; [5]): 35.3%

O=C1C=CC(=O)c2ccccc21 [SF1737-000]
IC50 (PTEN [2]): 43 µM

O=C1C(=O)c2cc([N+](=O)[O-])ccc2-c2ccccc21 [SF1722-000]
IC50 (PTEN [2]): 4 µM
inhibition at 250 µM (PTEN [1]; [6]): 99.3%

O=C1Nc2ccc(I)cc2C1=O [SF1819-000]
IC50 (PTP1B; Table 29, read-out: PTP1B IC50): < 10000 nM
IC50 (PTEN [2]; Table 29, read-out: PTEN IC50): 33.6 µM
inhibition at 250 µM (PTEN [1]; [3]): 96%

Nc1nonc1NC(=O)N/N=C/CCC/C=N/NC(=O)Nc1nonc1N [SF1567-000]
inhibition at 250 µM (PTEN [1]; [5]): 60.2%

O=C(CNc1ccc2c(c1)C(=O)C(=O)c1ccccc1-2)OCc1ccccc1 [SF1807-000]
IC50 (PTP1B): < 1000 nM
inhibition at 250 µM (PTEN [1]; [6]): 93.9%

O=C1Nc2ccc(F)cc2C1=O [SF1820-000]
IC50 (PTP1B; Table 29, read-out: PTP1B IC50): 10000 to 100000 nM
IC50 (PTEN [2]; Table 29, read-out: PTEN IC50): 61.9 µM
inhibition at 250 µM (PTEN [1]; [3]): 94.6%

NCCCC(O)(P(=O)([O-])O)P(=O)(O)O.[Na+] [CC1669-100, Alendronate, Sodium, Trihydrate, reference compound]
% Inhibition @ 250 uM in PTEN Assay (PTEN [1]): minimal activity
inhibition at 250 µM (PTEN [1]; read-out: % Inhibition @ 250 uM in PTEN Assay): -0.9 to 20%

CCOC(=O)C(=O)Nc1ccc2c(c1)C(=O)C(=O)c1ccccc1-2 [SF1786-000]
IC50 (PTP1B): < 1000 nM
IC50 (PTEN [2]): 0.692 µM
inhibition at 250 µM (PTEN [1]; [6]): 99.8%

O=C1C=Cc2ccccc2C1=O [SF1736-000]
IC50 (PTEN [2]): 21 µM

Cc1ccc(C(=O)Nc2ccc(S(=O)(=O)O)c3cc(S(=O)(=O)O)cc(S(=O)(=O)O)c23)cc1NC(=O)c1cccc(NC(=O)Nc2cccc(C(=O)Nc3cc(C(=O)Nc4ccc(S(=O)(=O)O)c5cc(S(=O)(=O)O)cc(S(=O)(=O)O)c45)ccc3C)c2)c1 [SF1672-100, Suramin, Sodium Salt, reference compound]
inhibition at 250 µM (PTEN [1]; [7]): -9.9%

CC1(C)[C@H](C=C(Br)Br)[C@@H]1C(=O)OC(C#N)c1cccc(Oc2ccccc2)c1 (stereo partly drawn) [SF1667-000, Deltamethrin, reference compound]
inhibition at 250 µM (PTEN [1]; [4]): 0.3%

Cc1ccc(OCC(=O)Nc2ccc3c(c2)C(=O)C(=O)c2ccccc2-3)cc1 [SF1771-000]
IC50 (PTP1B): 442 nM
IC50 (PTEN [2]): 0.395 µM
inhibition at 250 µM (PTEN [1]; [6]): 99.2%

O=C1C(=O)c2cc(NS(=O)(=O)c3ccc([N+](=O)[O-])cc3)ccc2-c2ccccc21 [SF1774-000]
IC50 (PTP1B; Table 29, read-out: PTP1B IC50): 331 nM
IC50 (PTEN [2]; Table 29, read-out: PTEN IC50): 0.214 µM
inhibition at 250 µM (PTEN [1]; [6]): 98.6%

Monoperoxo(picolinato)oxovanadate(V) [SF1677-000, reference compound]
% Inh. @ 250 uM in PTEN Assay (PTEN [1]): 96.9%

O=P(O)(O)Oc1cccc2ccccc12 [SF1684-100, α-Naphthyl Acid Phosphate, Monosodium Salt, reference compound]
inhibition at 250 µM (PTEN [1]; [4]): 11.2%

CCOC(=O)Nc1ccc2c(c1)C(=O)C(=O)c1ccccc1-2 [SF1808-000]
IC50 (PTP1B): < 1000 nM
inhibition at 250 µM (PTEN [1]; [6]): 96.2%

O=C1Nc2c(Cl)ccc(Cl)c2C1=O [SF1822-000]
IC50 (PTEN [2]; Table 29, read-out: PTEN IC50): 24.5 µM
inhibition at 250 µM (PTEN [1]; [3]): 97.3%

O=P(O)(O)OC(CO)CO [SF1685-100, β-Glycerophosphate, Disodium Salt, Pentahydrate, reference compound]
inhibition at 250 µM (PTEN [1]; [7]): 10.9%
